According to PubChem BioAssay (NCI):
Values joined by “and” are separate entries in the source; they are usually repeats but may differ in a detail not shown here. Identical values can stand only once.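 Values below derive from 48-hour exposures of cells grown in 96-well plates, with endpoints linearly interpolated between the two concentrations bracketing the appropriate inhibition level. GI50 = concentration required for 50% inhibition of growth. The concentration for full growth arrest is given as TGI.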

Columns and labels:
Experiment in all cases: growth of human tumour cells (NCI), 48 h
[1] = tested on: BT-549 breast
[2] = tested on: DU-145 prostate
[3] = tested on: HS 578T breast
[4] = tested on: MCF7 breast
[5] = tested on: PC-3 prostate

| SMILES | TGI [1] | TGI [2] | TGI [3] | TGI [4] | TGI [5] | GI50 [1] | GI50 [2] | GI50 [4] | GI50 [5] | GI50 [3] |
| --- | --- | --- | --- | --- | --- | --- | --- | --- | --- | --- |
| COC(=O)N/N=C(\C)C(CN1CCOCC1)C(c1ccccc1)c1cc2ccccc2oc1=O (stereo unspecified) | > 100 µM | > 100 µM | > 100 µM | > 100 µM | > 100 µM | – | – | – | – | – |
| CC1(C)C2CCC13C(=O)C1OC3(C2)C2C(=O)c3c(O)ccc(O)c3C(=O)C12 (stereo unspecified) | > 92.2 µM | 96.5 µM | > 54.4 µM | > 100 µM | 98.5 µM | > 70.3 µM | 32.2 µM | 35 µM | 30.8 µM | – |
| NC(=O)Oc1cc(OC(N)=O)cc(N(CCCl)CCCl)c1 | 30.7 µM | 51.2 µM | 76.3 µM | 47.4 µM | 54.8 µM | 7.93 µM | 3.06 µM | 1.09 µM | 7.1 µM | 23.2 µM |
| CN1CCN(Cc2ccc(NC(=O)c3cncc(C#Cc4c(N)ncc5cc(F)ccc45)c3)cc2C(F)(F)F)CC1 | 12.6 µM | 1.58 µM | 6.47 µM | 1.35 µM | 1.53 µM | 4.86 µM | 0.874 µM | 0.591 µM | 0.747 µM | 1.11 µM |
| O=C1/C(=C/c2ccc(Cl)cc2)CN(C(=O)C(Cl)Cl)C/C1=C\c1ccc(Cl)cc1 | 0.765 µM | 1.31 µM | 2.33 µM | 0.56 µM | 0.686 µM | 0.259 µM | 0.357 µM | 0.0441 µM | 0.199 µM | 0.312 µM |
| CCCC(=O)NNc1[nH]c(-c2ccc(OC)cc2)cc1C(=O)OCC | 31 µM | 45.6 µM | 57.9 µM | 35.3 µM | 41.4 µM | 15.7 µM | 21.7 µM | 17.7 µM | 19.4 µM | 21.7 µM |
| Cc1ccc(NC(=O)c2ccnc(N3CCCC3)c2)cc1-c1ccc(C(=O)NCC2CC2)cc1 | > 25 µM | > 25 µM | > 25 µM | > 25 µM | > 25 µM | > 25 µM | > 25 µM | > 25 µM | > 25 µM | > 25 µM |
| COc1cc(C(=O)n2nc(N3CCN(C)CC3)c3cc(N)ccc32)cc(OC)c1OC | > 100 µM | > 100 µM | > 100 µM | > 100 µM | > 100 µM | 4.32 µM | 3.99 µM | 3.02 µM | 17.7 µM | 12.8 µM |
| CC/C(=C(\CC)c1ccc(OCCN(CC)CC)cc1)c1ccc(OCCN(CC)CC)cc1 | 13.9 µM | 19.2 µM | 7.09 µM | 7.99 µM | 19.5 µM | 4.55 µM | 6.05 µM | 2.81 µM | 3.25 µM | 1.74 µM |
| Cn1cc(C2=C(c3c4n(c5ccccc35)CCC(CN)CC4)C(=O)NC2=O)c2ccccc21 (stereo unspecified) | 8.62 µM | 8.21 µM | 8.5 µM | 7.41 µM | 7.95 µM | 4.7 µM | 4.55 µM | 3.48 µM | 3.39 µM | 2.56 µM |
| CC(C)=CCC/C(C)=C/CC/C(=C/COP(=O)(OCc1ccc([N+](=O)[O-])o1)N(C)CCCCCl)C(C)(C)C (stereo unspecified) | – | 9 µM | 1.06 µM | 18.6 µM | 15.1 µM | – | 1.61 µM | 2.47 µM | 0.43 µM | – |
| COc1cc(-c2nc3ccccc3s2)ccc1OCc1nc2n(n1)S(=O)(=O)c1ccccc1N2C | > 100 µM | > 100 µM | > 100 µM | > 100 µM | > 100 µM | > 100 µM | > 100 µM | > 100 µM | > 100 µM | > 100 µM |
| O=C(O)CC1(C(=O)O)CCCCC1 | > 100 µM | > 100 µM | > 100 µM | > 100 µM | > 100 µM | – | – | – | – | – |
| COc1ccc(F)cc1C(=O)c1cnc(NC2CCN(S(C)(=O)=O)CC2)nc1N | 14.3 µM | 24.5 µM | 17.8 µM | > 25 µM | 18.1 µM | 4.11 µM | 5.52 µM | 0.18 µM | 2.79 µM | 3.93 µM |
| CO[C@H](C(=O)N[C@@H](CCCCNC(=O)OCc1ccccc1)C(=O)OC(C)(C)C)[C@@H]1Cc2cc3cc(OC4CC(OC5CC(O)C(O)C(C)O5)C(O)C(C)O4)c(C)c(O)c3c(O)c2C(=O)[C@H]1OC1CC(OC2CC(OC3CC(C)(O)C(O)C(C)O3)C(O)C(C)O2)C(O)C(C)O1 (stereo partly specified) | 1.81 µM | > 10 µM | 5 µM | 2.03 µM | 8.67 µM | 0.518 µM | 0.842 µM | 0.281 µM | 0.7 µM | 1.05 µM |
| COC1CC2CCC(C)[C@](O)(O2)C(=O)C(=O)N2CCCCC2C(=O)OC(C(C)CC2CCC(O)C(OC)C2)CC(=O)C(C)C=C(C)C(OC(=O)CN(C)C)C(OC)C(=O)C(C)CC(C)/C=C/C=C/C=C\1C (stereo partly specified) | – | 14.5 µM | 16.9 µM | 17.6 µM | 21.2 µM | – | – | – | – | – |
| CN(C)CC1CCn2c(c(C3=C(c4cn(C)c5ccccc45)C(=O)NC3=O)c3ccccc32)C1 (stereo unspecified) | 12.2 µM | 10.9 µM | 7.36 µM | 8.03 µM | 8.03 µM | 5.3 µM | 4.91 µM | 4.31 µM | 3.71 µM | 2.31 µM |
| Cn1cnc2c(NCc3ccccc3)nc(NCCO)nc21 | > 454 µM | > 500 µM | 465 µM | 90.4 µM and > 268 µM | 283 µM | 147 µM | 125 µM | 62.9 µM | 41.4 µM | 162 µM |
| O=C(Nc1ccc(Br)c(Cl)c1)c1cc(F)ccc1O | 2.7 µM | > 50 µM | > 15.5 µM | > 50 µM | > 14.8 µM | 0.525 µM | 1.39 µM | 0.883 µM | 1.25 µM | 0.719 µM |
| CCN(CC)CCOc1cc2c(C(=O)OC)c(C)oc2cc1C(C)=O | 22.8 µM | – | 31.4 µM | 45.2 µM | 13.7 µM | 7.84 µM | – | 22.8 µM | 3.97 µM | 13.4 µM |
| C[C@]12CCC(=O)C=C1CC[C@@H]1[C@@H]2CC[C@]2(C)C(=O)/C(=C/c3cccc(OCCN4CCOCC4)c3)C[C@@H]12 | – | 51.5 µM | 66.7 µM | 71.7 µM | 29.2 µM | – | 17.9 µM | 9.11 µM | 3.15 µM | 16.6 µM |
| COC(=O)C#Cc1ccc([N+](=O)[O-])cc1 | 3.34 µM | 3.57 µM | 47.5 µM | 9.04 µM | 13.1 µM | – | – | – | – | – |
